According to ChEMBL document CHEMBL1201862, “PubChem BioAssay data set” (2004):
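1) Cells in 96-well plates. 2) Compound, 48 h, 5 concentrations. 3) Linear interpolation between surrounding doses. 4) Unreached endpoint = highest concentration. GI50 is the concentration that inhibits growth by half.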 Calls of active or inactive are those of the source. No stated cut-off is given here; in the data, active = GI50 up to about 1.1 µM and inactive = higher.

What was measured:
Assay in all cases: NCI tumour cell line growth inhibition, 48 h
Malme-3M = tested on: Malme-3M
SK-MEL-28 = tested on: SK-MEL-28
PC-3 = tested on: PC-3
OVCAR-5 = tested on: OVCAR-5
A498 = tested on: A498
HOP-92 = tested on: HOP-92
MDA-MB-231 = tested on: MDA-MB-231
SW-620 = tested on: SW-620
IGROV-1 = tested on: IGROV-1
HOP-62 = tested on: HOP-62
BT-549 = tested on: BT-549
MCF7 = tested on: MCF7
M14 = tested on: M14
HCT-116 = tested on: HCT-116
K562 = tested on: K562
U-251 = tested on: U-251
COLO 205 = tested on: COLO 205
RPMI-8226 = tested on: RPMI-8226
SR = tested on: SR

Row | Structure (SMILES) | GI50 (Malme-3M) | GI50 (SK-MEL-28) | GI50 (PC-3) | GI50 (OVCAR-5) | GI50 (A498) | GI50 (HOP-92) | GI50 (MDA-MB-231) | GI50 (SW-620) | GI50 (IGROV-1) | GI50 (HOP-62) | GI50 (BT-549) | GI50 (MCF7) | GI50 (M14) | GI50 (HCT-116) | GI50 (K562) | GI50 (U-251) | GI50 (COLO 205) | GI50 (RPMI-8226) | GI50 (SR)
1 | CCOC(=O)c1c(O)nc(O)c(CC)c1C | > 100 µM (inactive) | > 100 µM (inactive) | > 100 µM (inactive) | > 100 µM (inactive) | > 100 µM (inactive) | > 100 µM (inactive) | > 100 µM (inactive) | > 100 µM (inactive) | > 100 µM (inactive) | > 100 µM (inactive) | > 100 µM (inactive) | > 100 µM (inactive) | > 100 µM (inactive) | > 100 µM (inactive) | > 100 µM (inactive) | > 100 µM (inactive) | > 100 µM (inactive) | > 100 µM (inactive) | 
2 | Nc1c(C(=O)O)nnc2ccc(Cl)cc12 | > 100 µM (inactive) |  | > 100 µM (inactive) | > 100 µM (inactive) | 58.6 µM (inactive) |  | > 100 µM (inactive) | > 100 µM (inactive) | > 100 µM (inactive) | > 100 µM (inactive) | > 100 µM (inactive) | > 100 µM (inactive) | > 100 µM (inactive) | > 100 µM (inactive) | > 100 µM (inactive) | > 100 µM (inactive) | > 100 µM (inactive) | > 100 µM (inactive) | > 100 µM (inactive)
3 | Cc1c2ccnc(C(=O)NCCN(C)C)c2cc2c3cc(O)ccc3n(C)c12 | 0.295 µM (active) | 0.328 µM (active) | 0.115 µM (active) | 0.76 µM (active) |  | 0.235 µM (active) | 0.314 µM (active) | 0.0931 µM (active) | 0.277 µM (active) | 0.0368 µM (active) | 2.06 µM (inactive) | 0.082 µM (active) | 0.215 µM (active) | 0.0608 µM (active) | 0.123 µM (active) | 0.0373 µM (active) | 0.268 µM (active) | 0.0927 µM (active) | < 0.0184 µM (active)
4 | N#C/C(=C\c1ccccc1)c1nc(-c2cc3ccccc3oc2=O)cs1 | > 100 µM (inactive) | > 100 µM (inactive) | > 100 µM (inactive) | > 100 µM (inactive) |  | 32.1 µM (inactive) | 71.3 µM (inactive) | > 100 µM (inactive) | 48.5 µM (inactive) | 30.9 µM (inactive) | 27.3 µM (inactive) | > 100 µM (inactive) | > 100 µM (inactive) | > 100 µM (inactive) | > 100 µM (inactive) | 41.6 µM (inactive) | > 100 µM (inactive) | > 100 µM (inactive) | > 100 µM (inactive)
5 | CC(C)(C)C(=O)OCOP(=O)(OCOC(=O)C(C)(C)C)OCC1OC(n2ccc(=O)[nH]c2=O)C(N=[N+]=[N-])C1O (configuration not stated) | 0.261 µM (active) | 11.6 µM (inactive) | 3.81 µM (inactive) | 5.28 µM (inactive) |  | 1.82 µM (inactive) | 8.79 µM (inactive) | 5.79 µM (inactive) | 4.23 µM (inactive) | 2.37 µM (inactive) | 3.91 µM (inactive) | 3.81 µM (inactive) | 3 µM (inactive) | 3.22 µM (inactive) | 19.1 µM (inactive) | 2.59 µM (inactive) | 3.14 µM (inactive) | 1.62 µM (inactive) | 2.2 µM (inactive)
6 | COC1(C)/C=N/CC(C)(C)NC(=O)C(C)(OC)/C=N/CC(C)(C)NC1=O (configuration not stated) | > 10 µM (inactive) | > 10 µM (inactive) | > 10 µM (inactive) |  |  | > 10 µM (inactive) | > 10 µM (inactive) | > 10 µM (inactive) | > 10 µM (inactive) | > 10 µM (inactive) | > 10 µM (inactive) | > 10 µM (inactive) | > 10 µM (inactive) | > 10 µM (inactive) | > 10 µM (inactive) | > 10 µM (inactive) | > 10 µM (inactive) | > 10 µM (inactive) | > 10 µM (inactive)
7 | C/C(=N\NC(=O)/C(C#N)=C\c1ccc(N(CCC#N)CCC#N)cc1)c1ccccc1 | > 10 µM (inactive) | > 10 µM (inactive) | > 10 µM (inactive) |  |  | > 10 µM (inactive) | > 10 µM (inactive) | > 10 µM (inactive) | > 10 µM (inactive) | > 10 µM (inactive) | > 10 µM (inactive) | > 10 µM (inactive) | > 10 µM (inactive) | > 10 µM (inactive) |  |  | > 10 µM (inactive) | > 10 µM (inactive) | > 10 µM (inactive)
8 | CCOc1ncn(-c2ccc(NC(=S)NC3OC(CO)C(O)C(O)C3O)cc2)n1 (configuration not stated) |  | > 100 µM (inactive) | > 100 µM (inactive) | > 100 µM (inactive) |  | > 100 µM (inactive) | > 100 µM (inactive) | > 100 µM (inactive) | > 100 µM (inactive) | > 100 µM (inactive) | > 100 µM (inactive) | > 100 µM (inactive) | > 100 µM (inactive) | > 100 µM (inactive) | > 100 µM (inactive) | > 100 µM (inactive) | > 100 µM (inactive) | > 100 µM (inactive) | > 100 µM (inactive)
9 | C=CCON(C(=O)OC(C)(C)C)C(C)(C)C | > 100 µM (inactive) | > 100 µM (inactive) | > 100 µM (inactive) | > 100 µM (inactive) | > 100 µM (inactive) | > 100 µM (inactive) | > 100 µM (inactive) | > 100 µM (inactive) | > 100 µM (inactive) | > 100 µM (inactive) | > 100 µM (inactive) |  | > 100 µM (inactive) | > 100 µM (inactive) | > 100 µM (inactive) | > 100 µM (inactive) | > 100 µM (inactive) | > 100 µM (inactive) | > 100 µM (inactive)
10 | CCOC(=O)c1c(-c2ccccc2)nc2c(OC)nccn12 | > 100 µM (inactive) | > 100 µM (inactive) | > 100 µM (inactive) |  |  |  | > 100 µM (inactive) | > 100 µM (inactive) | > 100 µM (inactive) | > 100 µM (inactive) | > 100 µM (inactive) | > 100 µM (inactive) | > 100 µM (inactive) | > 100 µM (inactive) | > 100 µM (inactive) | > 100 µM (inactive) | > 100 µM (inactive) | > 100 µM (inactive) | > 100 µM (inactive)
11 | COc1ccc(-c2nc3ncccn3c2-c2ccc(S(C)(=O)=O)cc2)cc1 |  | > 100 µM (inactive) | > 100 µM (inactive) | > 100 µM (inactive) |  | 14.1 µM (inactive) | > 100 µM (inactive) | > 100 µM (inactive) | 53.8 µM (inactive) | > 100 µM (inactive) | > 100 µM (inactive) | 22.3 µM (inactive) | > 100 µM (inactive) | > 100 µM (inactive) | > 100 µM (inactive) | > 100 µM (inactive) | > 100 µM (inactive) | 41.7 µM (inactive) | 47.6 µM (inactive)
12 | CC(=O)N1c2ccccc2Sc2cc(C(O)(C(F)(F)F)C(F)(F)F)ccc21 | > 10 µM (inactive) | > 10 µM (inactive) | > 10 µM (inactive) | > 10 µM (inactive) | > 10 µM (inactive) | 4.66 µM (inactive) | > 10 µM (inactive) | > 10 µM (inactive) | > 10 µM (inactive) | > 10 µM (inactive) | > 10 µM (inactive) | > 10 µM (inactive) | > 10 µM (inactive) | > 10 µM (inactive) | > 10 µM (inactive) | > 10 µM (inactive) | > 10 µM (inactive) |  | 
13 | C=CCN1CCC2(CC1)NC(=O)c1ccccc1O2 | > 100 µM (inactive) | > 100 µM (inactive) | > 100 µM (inactive) | > 100 µM (inactive) |  | > 100 µM (inactive) | > 100 µM (inactive) | > 100 µM (inactive) | > 100 µM (inactive) | > 100 µM (inactive) | > 100 µM (inactive) | > 100 µM (inactive) | > 100 µM (inactive) | > 100 µM (inactive) | > 100 µM (inactive) | > 100 µM (inactive) | > 100 µM (inactive) | > 100 µM (inactive) | > 100 µM (inactive)
14 | NNC(=O)c1nn[nH]c1SSc1[nH]nnc1C(=O)NN |  | > 100 µM (inactive) | > 100 µM (inactive) | > 100 µM (inactive) |  | > 100 µM (inactive) | > 100 µM (inactive) | > 100 µM (inactive) | > 100 µM (inactive) | > 100 µM (inactive) | > 100 µM (inactive) | > 100 µM (inactive) | > 100 µM (inactive) | > 100 µM (inactive) |  | > 100 µM (inactive) | > 100 µM (inactive) |  | 
15 | O=S(=O)(O)c1ccc(/N=N/c2ccc3c(S(=O)(=O)O)cccc3c2O)c2ccccc12 | > 100 µM (inactive) | > 100 µM (inactive) | > 100 µM (inactive) | > 100 µM (inactive) | > 100 µM (inactive) | > 100 µM (inactive) | > 100 µM (inactive) | > 100 µM (inactive) | > 100 µM (inactive) | > 100 µM (inactive) | > 100 µM (inactive) | > 100 µM (inactive) | > 100 µM (inactive) | > 100 µM (inactive) |  | > 100 µM (inactive) | > 100 µM (inactive) | > 100 µM (inactive) | 
16 | CC(C)(O)C1CC[C@]2(C)[C@H]3CC[C@@H]4[C@@]5(C)CCCC(C)(C)[C@@H]5CC[C@@]4(C)[C@]3(C)CC[C@@H]12 (some centres not stated) | > 100 µM (inactive) | > 100 µM (inactive) | > 100 µM (inactive) | > 100 µM (inactive) | > 100 µM (inactive) | > 100 µM (inactive) | > 100 µM (inactive) | > 100 µM (inactive) | > 100 µM (inactive) | > 100 µM (inactive) | > 100 µM (inactive) | > 100 µM (inactive) | > 100 µM (inactive) | > 100 µM (inactive) |  | > 100 µM (inactive) | > 100 µM (inactive) | > 100 µM (inactive) | 
